Data: ChEMBL document CHEMBL3885861, “Open TG-GATES”

Organism: Rattus norvegicus
Assay: Open TG-GATES - Regimen: Single
Format: toxicity, organism-based, Sprague-Dawley
Set-up: regimen Single, gender Male, age 6 weeks
Conditions: in vivo, po, 100 mg/kg, route gavage, dose level Low; for APTT / Bas / Eos / Fbg / Hb / Ht / Lym / MCH / MCHC / MCV / Mono / Neu / PT / Plat / RBC / Ret / WBC: tissue Blood; for KIDNEY_L / KIDNEY_R / KIDNEY_TOTAL: tissue Kidney; for LIVER: tissue Liver; for A/G / ALP / ALT / AST / BUN / CRE / Ca / Cl / DBIL / GLC / IP / K / LDH / Na / PL / RALB / TBIL / TC / TG / TP / gamma-GTP: tissue Plasma

SMILES: CN/C(=N/CCSCc1nc[nH]c1C)NC#N [CIMETIDINE]
- TERMINAL_BW (3 h): 214.5 g
- APTT (3 h): 18.3 s
- Bas (3 h): 0%
- Eos (3 h): 1%
- Fbg (3 h): 220.4 mg/dL
- Hb (3 h): 13.1 g/dL
- Ht (3 h): 38.2%
- Lym (3 h): 78.6%
- MCH (3 h): 21.9 pg
- MCHC (3 h): 34.2%
- MCV (3 h): 64.1 fL
- Mono (3 h): 2.8%
- Neu (3 h): 16.8%
- PT (3 h): 12.8 s
- Plat (3 h): 127.8 x10_4/uL
- RBC (3 h): 596.2 x10_4/ul
- Ret (3 h): 8.3%
- WBC (3 h): 109.3 x10_2/uL
- KIDNEY_L (3 h): 1 g
- KIDNEY_R (3 h): 1 g
- KIDNEY_TOTAL (3 h): 2 g
- LIVER (3 h): 10 g
- A/G (3 h): 1.7
- ALP (3 h): 1167.2 IU/L
- ALT (3 h): 39.4 IU/L
- AST (3 h): 70.2 IU/L
- BUN (3 h): 9.6 mg/dL
- CRE (3 h): 0.4 mg/dL
- Ca (3 h): 10.6 mg/dL
- Cl (3 h): 102.6 meq/L
- DBIL (3 h): 0.072 mg/dL
- GLC (3 h): 195 mg/dL
- IP (3 h): 9.5 mg/dL
- K (3 h): 4 meq/L
- LDH (3 h): 154.4 IU/L
- Na (3 h): 140.6 meq/L
- PL (3 h): 140.6 mg/dL
- RALB (3 h): 3.4 g/dL
- TBIL (3 h): 0.1 mg/dL
- TC (3 h): 75.2 mg/dL
- TG (3 h): 47.4 mg/dL
- TP (3 h): 5.5 g/dL
- gamma-GTP (3 h): 0.6 IU/L
- TERMINAL_BW (6 h): 209.9 g
- APTT (6 h): 18.8 s
- Bas (6 h): 0%
- Eos (6 h): 1%
- Fbg (6 h): 216.8 mg/dL
- Hb (6 h): 13.2 g/dL
- Ht (6 h): 38%
- Lym (6 h): 77.6%
- MCH (6 h): 22.2 pg
- MCHC (6 h): 34.8%
- MCV (6 h): 63.7 fL
- Mono (6 h): 2.8%
- Neu (6 h): 17.6%
- PT (6 h): 13.1 s
- Plat (6 h): 135.7 x10_4/uL
- RBC (6 h): 596.8 x10_4/ul
- Ret (6 h): 7.8%
- WBC (6 h): 98.4 x10_2/uL
- KIDNEY_L (6 h): 1 g
- KIDNEY_R (6 h): 1 g
- KIDNEY_TOTAL (6 h): 1.9 g
- LIVER (6 h): 9.7 g
- A/G (6 h): 1.6
- ALP (6 h): 885 IU/L
- ALT (6 h): 34.4 IU/L
- AST (6 h): 64 IU/L
- BUN (6 h): 9.6 mg/dL
- CRE (6 h): 0.4 mg/dL
- Ca (6 h): 10.6 mg/dL
- Cl (6 h): 102.4 meq/L
- DBIL (6 h): 0.07 mg/dL
- GLC (6 h): 194.6 mg/dL
- IP (6 h): 9.6 mg/dL
- K (6 h): 3.7 meq/L
- LDH (6 h): 180 IU/L
- Na (6 h): 141.4 meq/L
- PL (6 h): 138 mg/dL
- RALB (6 h): 3.4 g/dL
- TBIL (6 h): 0.1 mg/dL
- TC (6 h): 70.6 mg/dL
- TG (6 h): 61.4 mg/dL
- TP (6 h): 5.5 g/dL
- gamma-GTP (6 h): 1.8 IU/L
- TERMINAL_BW (9 h): 209.3 g
- APTT (9 h): 20.3 s
- Bas (9 h): 0%
- Eos (9 h): 1%
- Fbg (9 h): 246 mg/dL
- Hb (9 h): 12.9 g/dL
- Ht (9 h): 36.9%
- Lym (9 h): 74%
- MCH (9 h): 22.4 pg
- MCHC (9 h): 34.9%
- MCV (9 h): 64.3 fL
- Mono (9 h): 2.4%
- Neu (9 h): 21%
- PT (9 h): 13.7 s
- Plat (9 h): 128.2 x10_4/uL
- RBC (9 h): 575.2 x10_4/ul
- Ret (9 h): 8.7%
- WBC (9 h): 88 x10_2/uL
- KIDNEY_L (9 h): 1 g
- KIDNEY_R (9 h): 1 g
- KIDNEY_TOTAL (9 h): 1.9 g
- LIVER (9 h): 9.2 g
- A/G (9 h): 1.6
- ALP (9 h): 890.8 IU/L
- ALT (9 h): 31.4 IU/L
- AST (9 h): 62 IU/L
- BUN (9 h): 11.6 mg/dL
- CRE (9 h): 0.3 mg/dL
- Ca (9 h): 10.5 mg/dL
- Cl (9 h): 103.4 meq/L
- DBIL (9 h): 0.076 mg/dL
- GLC (9 h): 194.4 mg/dL
- IP (9 h): 10 mg/dL
- K (9 h): 3.9 meq/L
- LDH (9 h): 137.4 IU/L
- Na (9 h): 141.4 meq/L
- PL (9 h): 135 mg/dL
- RALB (9 h): 3.4 g/dL
- TBIL (9 h): 0.1 mg/dL
- TC (9 h): 74.4 mg/dL
- TG (9 h): 42.8 mg/dL
- TP (9 h): 5.5 g/dL
- gamma-GTP (9 h): 1.2 IU/L
- TERMINAL_BW (24 h): 225.6 g
- APTT (24 h): 19.4 s
- Bas (24 h): 0%
- Eos (24 h): 1%
- Fbg (24 h): 227.2 mg/dL
- Hb (24 h): 12.7 g/dL
- Ht (24 h): 37.8%
- Lym (24 h): 79.8%
- MCH (24 h): 21.5 pg
- MCHC (24 h): 33.7%
- MCV (24 h): 63.7 fL
- Mono (24 h): 3.2%
- Neu (24 h): 14.8%
- PT (24 h): 12.8 s
- Plat (24 h): 135 x10_4/uL
- RBC (24 h): 593.4 x10_4/ul
- Ret (24 h): 7.2%
- WBC (24 h): 109.1 x10_2/uL
- KIDNEY_L (24 h): 1 g
- KIDNEY_R (24 h): 1.1 g
- KIDNEY_TOTAL (24 h): 2.1 g
- LIVER (24 h): 11.2 g
- A/G (24 h): 1.7
- ALP (24 h): 1060 IU/L
- ALT (24 h): 35.2 IU/L
- AST (24 h): 64.4 IU/L
- BUN (24 h): 15.8 mg/dL
- CRE (24 h): 0.4 mg/dL
- Ca (24 h): 10.8 mg/dL
- Cl (24 h): 102.2 meq/L
- DBIL (24 h): 0.1 mg/dL
- GLC (24 h): 199.4 mg/dL
- IP (24 h): 6.9 mg/dL
- K (24 h): 4.2 meq/L
- LDH (24 h): 155.6 IU/L
- Na (24 h): 140 meq/L
- PL (24 h): 143.8 mg/dL
- RALB (24 h): 3.4 g/dL
- TBIL (24 h): 0.2 mg/dL
- TC (24 h): 73.2 mg/dL
- TG (24 h): 98.8 mg/dL
- TP (24 h): 5.5 g/dL
- gamma-GTP (24 h): 1.6 IU/L
